From patent US10499640B2, “Herbicidal compounds” (SYNGENTA PARTICIPATIONS AG, priority 2014, dated 2019)

How the values were obtained:
Format in all cases: in vivo
[1] = tested on: Zea mays (ZEAMX); test: Pre-emergence herbicidal activity, glasshouse pot test; details: Rate 1000 g/Ha; sprayed one day after sowing; evaluated after 13 days; scale 0-5
Protocol: (§1) Seeds of a variety of test species were sown in standard soil in pots. After cultivation for one day (pre-emergence) under controlled conditions in a glasshouse (at 24/16° C., day/night; 14 hours light; 65% humidity), the plants were sprayed with an aqueous spray solution derived from the formulation of the technical active ingredient in acetone/water (50:50) solution containing 0.5% Tween 20 (polyoxyethelyene sorbitan monolaurate, CAS RN 9005-64-5). The test plants were then grown in a glasshouse under controlled conditions (at 24/16° C., day/night; 14 hours light; 65% humidity) and watered twice daily. After 13 days, the test was evaluated (5=total damage to plant; 0=no damage to plant).

[2] = tested on: Amaranthus retroflexus (AMARE); test: Post-emergence herbicidal activity, glasshouse pot test; design: key: 5=total damage to plant; 0=no damage to plant; details: Rate 1000 g/Ha; sprayed after 8 days cultivation; evaluated after 13 days; scale 0-5
Protocol: (§2) Seeds of a variety of test species were sown in standard soil in pots. After 8 days cultivation (post-emergence) under controlled conditions in a glasshouse (at 24/16° C., day/night; 14 hours light; 65% humidity), the plants were sprayed with an aqueous spray solution derived from the formulation of the technical active ingredient in acetone/water (50:50) solution containing 0.5% Tween 20 (polyoxyethelyene sorbitan monolaurate, CAS RN 9005-64-5). The test plants were then grown in a glasshouse under controlled conditions (at 24/16° C., day/night; 14 hours light; 65% humidity) and watered twice daily. After 13 days, the test was evaluated (5=total damage to plant; 0=no damage to plant).

[3] = tested on: Setaria faberi (SETFA); test: as above; design: key: 5=total damage to plant; 0=no damage to plant; details: Rate 1000 g/Ha; sprayed after 8 days cultivation; evaluated after 13 days; scale 0-5
Protocol: as §2

[4] = tested on: Echinochloa crus-galli (ECHCG); test: as above; design: key: 5=total damage to plant; 0=no damage to plant; details: Rate 1000 g/Ha; sprayed after 8 days cultivation; evaluated after 13 days; scale 0-5
Protocol: as §2

[5] = tested on: Zea mays (ZEAMX); test: as above; design: key: 5=total damage to plant; 0=no damage to plant; details: Rate 1000 g/Ha; sprayed after 8 days cultivation; evaluated after 13 days; scale 0-5
Protocol: as §2

[6] = tested on: Abutilon theophrasti (ABUTH); test: as above; design: key: 5=total damage to plant; 0=no damage to plant; details: Rate 1000 g/Ha; sprayed after 8 days cultivation; evaluated after 13 days; scale 0-5
Protocol: as §2

[7] = tested on: Amaranthus retroflexus (AMARE); test: Pre-emergence herbicidal activity, glasshouse pot test; design: key: 5=total damage to plant; 0=no damage to plant; details: Rate 1000 g/Ha; sprayed one day after sowing; evaluated after 13 days; scale 0-5
Protocol: as §1

[8] = tested on: Setaria faberi (SETFA); test: as above; design: key: 5=total damage to plant; 0=no damage to plant; details: Rate 1000 g/Ha; sprayed one day after sowing; evaluated after 13 days; scale 0-5
Protocol: as §1

[9] = tested on: Echinochloa crus-galli (ECHCG); test: as above; design: key: 5=total damage to plant; 0=no damage to plant; details: Rate 1000 g/Ha; sprayed one day after sowing; evaluated after 13 days; scale 0-5
Protocol: as §1

[10] = tested on: Abutilon theophrasti (ABUTH); test: as above; design: key: 5=total damage to plant; 0=no damage to plant; details: Rate 1000 g/Ha; sprayed one day after sowing; evaluated after 13 days; scale 0-5
Protocol: as §1

Compound | ZEAMX damage score, application pre-emergence [1] | AMARE damage score, application post-emergence [2] | SETFA damage score, application post-emergence [3] | ECHCG damage score, application post-emergence [4] | ZEAMX damage score, application post-emergence [5] | ABUTH damage score, application post-emergence [6] | AMARE damage score, application pre-emergence [7] | SETFA damage score, application pre-emergence [8] | ECHCG damage score, application pre-emergence [9] | ABUTH damage score, application pre-emergence [10]
C#CCN1C(=O)N(c2cc(C(C)(C)C)on2)C(O)C1C (single isomer, unassigned) [Compound A22] | 3 | 5 | 5 | 5 | 5 | 5 | 5 | 5 | 5 | 5
COC(C)(C)c1cc(N2C(=O)N(C)CC2O)no1 (stereo not drawn) [Compound A9] | 3 | 5 | 5 | 5 | 5 | 5 | 5 | 5 | 5 | 5
COC(C)(C)c1cc(N2C(=O)N(C)C(C)C2O)no1 (stereo not drawn) [Compound A10] | 3 | 5 | 5 | 5 | 5 | 5 | 5 | 5 | 5 | 5
CN1CC(O)N(c2cc(C(C)(C)O)on2)C1=O (stereo not drawn) [Compound A11] | 2 | 5 | 4 | 5 | 3 | 5 | 5 | 4 | 5 | 5
COC(C)(C)c1cc(N2C(=O)N(C)[C@H](C)C2O)no1 (stereo partly drawn) [Compound A12] | 3 | 5 | 5 | 5 | 4 | 5 | 5 | 5 | 5 | 5
CON1C(=O)N(c2cc(C(C)(C)OC)on2)C(O)C1C (stereo not drawn) [Compound A13] | 2 | 5 | 5 | 5 | 4 | 5 | 5 | 5 | 5 | 5
CCOC1C(O)N(c2cc(C(C)(C)OC)on2)C(=O)N1C (stereo not drawn) [Compound A14] | 2 | 5 | 5 | 5 | 4 | 5 | 5 | 5 | 5 | 5
COCC1C(O)N(c2cc(C(C)(C)OC)on2)C(=O)N1C (stereo not drawn) [Compound A15] | 2 | 5 | 5 | 5 | 3 | 5 | 5 | 5 | 5 | 5
CN1CC(O)N(c2cc(C(C)(C)F)no2)C1=O (stereo not drawn) [Compound A16] | 2 | 5 | 5 | 5 | 5 | 5 | 5 | 5 | 5 | 5
CC1C(O)N(c2cc(C(C)(C)F)no2)C(=O)N1C (stereo not drawn) [Compound A17] | 2 | 5 | 5 | 5 | 4 | 5 | 5 | 5 | 5 | 5
CON1C(=O)N(c2cc(C(C)(C)F)no2)C(O)C1C (stereo not drawn) [Compound A18] | 2 | 5 | 5 | 5 | 4 | 5 | 5 | 5 | 5 | 5
CCOC1C(O)N(c2cc(C(C)(C)F)no2)C(=O)N1C (stereo not drawn) [Compound A19] | 2 | 5 | 5 | 5 | 4 | 5 | 5 | 4 | 5 | 4
C[C@@H]1C(O)N(c2cc(C(C)(C)F)no2)C(=O)N1C (stereo partly drawn) [Compound A20] | 3 | 5 | 5 | 5 | 4 | 5 | 5 | 4 | 5 | 5
CC(C)(C)c1cc(N2C(=O)N3COCC3C2O)no1 (stereo not drawn) [Compound A21] | 3 | 5 | 5 | 5 | 4 | 5 | 5 | 5 | 5 | 5
C#CCC1C(O)N(c2cc(C(C)(C)C)on2)C(=O)N1CC#C (stereo not drawn) [Compound A23] | 2 | – | – | 5 | – | – | 5 | 5 | 4 | 5
C#CCN1CC(O)N(c2cc(C(C)(C)C)on2)C1=O (stereo not drawn) [Compound A24] | 3 | – | – | 5 | – | – | 5 | 5 | 5 | 5
CC(C)(C)c1cc(N2C(=O)N3CCCC3C2O)no1 (stereo not drawn) [Compound A25] | 4 | 5 | 5 | 5 | 5 | 5 | 5 | 4 | 5 | 5
